Source: US7459268B2, “Method for screening agent acting on cell wall” (Daiichi Pharmaceutical Co., Ltd., priority 2001, dated 2008)

Tests used:
[1] = system: AY-12 strain (membrane-type arming yeast); experiment: GFP releasing effect of available antifungal agents, membrane-type arming yeast; assay type: cell-based, S. cerevisiae; conditions: RPMIB medium protected for osmotic pressure
Experimental: (§1) The cultured yeast cells in the logarithmic growth phase (AY-2 strain or AY-12 strain) were collected, and various agents were allowed to act on the yeast cells. Fluorescence intensity of the culture supernatant was measured by using Cytofluor 2300 Fluorometer (Millipore, excitation=480 nm, emission=530 nm). The fluorescence intensity under treatment with each of various agents was shown in terms of a difference in fluorescence intensity compared with that of a control in which no agent was added.
(§2) In order to ascertain whether or not the aforementioned method can be utilized for a screening of agents with a targeting site other than Kre6p, the GFP releasing effects in the AY-2 strain (wall-type arming yeast) and the AY-12 strain (membrane-type arming yeast) were compared under actions of available antifungal agents. The AY-2 strain cells and the AY-12 strain cells each cultured in a test tube were suspended with a medium (RPMIB) protected for osmotic pressure, and each of the agents was allowed to act on the cells. After the culture, the fluorescence intensity of the supernatant was measured, and a difference from that of a control with no addition of the agent was calculated.

[2] = system: AY-2 strain (wall-type arming yeast); experiment: GFP releasing effect of available antifungal agents, wall-type arming yeast; assay type: cell-based, S. cerevisiae; conditions: RPMIB medium protected for osmotic pressure
Experimental: as §1, §2

[3] = system: AY-14 strain; experiment: GFP release by cell wall synthesis inhibitors; assay type: cell-based, Saccharomyces cerevisiae; conditions: each agent alone
Description: As agents confirmed to have a yeast cell wall synthesis inhibitory action, tunicamycin (TM, Funakoshi, Tokyo), aculeacin A (AC, Wako Pure Chemical Industries, Osaka) and staurosporine (SP, Boehringer Mannheim, Tokyo) were used. The AY-14 strain was used as a microorganism.
Thus, it is evident that inhibitors for the (1,3)-β-glucan synthesis pathway, N-type saccharide chain synthesis pathway, saccharide chain (glucan) synthesis regulatory pathway and the like can also be screened.

[4] = system: AY-14 strain; experiment: Molecular weight of released GFP by Western blotting after agent treatment; assay type: cell-based, Saccharomyces cerevisiae; conditions: agent alone
Experimental: Cells at the logarithmic growth phase were collected after inoculation to the liquid medium and culture at 30° C., and suspended in a fresh medium of the same type to prepare a cell suspension for inoculation. The cells were cultured at 30° C. Fluorescence intensity of the culture supernatant was measured (excitation=480 nm, emission=530 nm) by using ARVO sx (Wallac, Tokyo). The GFP releasing effect of the gene-disrupted strains was represented in terms of a difference with that of a non-gene-disrupted strain (AY-10u strain or AY12u strain). After the measurement of fluorescence intensity, the culture supernatants were concentrated by ultrafiltration. The concentrated supernatants were subjected to separation by SDS-PAGE and blotted on a PVDF membrane, and GFP was detected by using commercially available anti-GFP antibodies (rabbit IgG, Santa Cruz Biotechnology) to compare the molecular weights (Western blotting).
As agents confirmed to have a yeast cell wall synthesis inhibitory action, tunicamycin (TM, Funakoshi, Tokyo), aculeacin A (AC, Wako Pure Chemical Industries, Osaka) and staurosporine (SP, Boehringer Mannheim, Tokyo) were used. The AY-14 strain was used as a microorganism. […]

Molecule | GFP releasing effect (fluorescence intensity of culture supernatant, difference from control with no agent) [1] | GFP releasing effect (fluorescence intensity of culture supernatant, difference from control with no agent) [2] | release of GFP [3] | molecular weight of released GFP compared with that in the absence of agent [4]
C[C@@H]1[C@H](O)[C@@H](C)/C=C/C=C/C=C/C=C/C=C/C=C/C=C/[C@H](O[C@@H]2O[C@H](C)[C@@H](O)[C@H](N)[C@@H]2O)C[C@@H]2O[C@](O)(C[C@@H](O)C[C@@H](O)[C@H](O)CC[C@@H](O)C[C@@H](O)CC(=O)O[C@H]1C)C[C@H](O)[C@H]2C(=O)O [Amphotericin B] | Slight releasing effect | Slight releasing effect | – | –
OC(Cn1cncn1)(Cn1cncn1)c1ccc(F)cc1F [Fluconazole] | Slight releasing effect | Slight releasing effect | – | –
CN[C@@H]1C[C@H]2O[C@@](C)([C@@H]1OC)n1c3ccccc3c3c4c(c5c6ccccc6n2c5c31)C(=O)NC4 [SP, staurosporine] | – | – | release of GFP was observed | –
CC[C@@H](C(=O)[C@@H](C)[C@@H](O)[C@H](C)[C@@H]1O[C@@H]([C@@H](CC)C(=O)O)CC[C@@H]1C)[C@H]1O[C@]2(C=C[C@@H](O)[C@]3(CC[C@@](C)([C@H]4CC[C@](O)(CC)[C@H](C)O4)O3)O2)[C@H](C)C[C@@H]1C [Salinomycin] | Slight releasing effect | Slight releasing effect | – | –
Aculeacin A | almost no releasing effect | Marked GFP releasing effect | release of GFP was observed | –
Tunicamycin | almost no releasing effect | Marked GFP releasing effect | release of GFP was observed | markedly lowered
